Several values for one entry are separate records, joined by “and”; a condition that tells them apart may be missing. Equal values may be shown once.
Legend:
HT1080-(CAG)850 cells = experiment: small-pool PCR repeat instability, proliferating HT1080-(CAG)850 cells producing rCAG transcript; format: cell-based, human; settings: 30 days; for % Contraction / % Expansion: cut-off ±25 repeats
Protocol: (§1) The construction of the HT1080-(CAG)850 cell model was described previously (Sathasivam et al., 1997, Hum. Genet., 99:692-5). Briefly, HT1080 (ATCC) human fibrosarcoma cells were co-transfected with a plasmid (LC15-R) containing 800-850 (CTG)●(CAG) repeats (Nakatani et al., 2005, Nat. Chem. Biol., 1:39-43) and a plasmid encoding PhiC31 integrase. Transfection was performed with a Nucleofector (Lonza, Basel, Switzerland), and stably transfected clones were selected with puromycin. […] The HT1080-non-transcribing (CAG)850 cell model was established by transfecting a plasmid modified from pLC16 by inserting an additional SV40 polyadenylation signal downstream of the repeats (in addition to the original polyadenylation signals located upstream of the repeats), so that CAG/CTG repeats are floxed by transcription-terminator elements. The AttB-PhiC31 system has been widely used for single copy integration. […] The HT1080 model cells and an HD primary fibroblast cell line, GM09197 (Coriell Biorepository) with a large expanded allele of 180 CAG repeats and a non-expanded allele of 23 repeats (Sathasivam et al., 1997, Hum. Genet., 99:[…]), the HD primary fibroblast cell line, GM02191 (Coreill Biorepository) with an expanded allele of 43 CAG repeats and a non-expanded allele of 19 repeats, were cultured at 37° C. with 5% CO2 in Dulbecco's modified Eagle's medium supplemented with 10% fetal bovine serum and 1% penicillin/streptomycin. Cells were treated with or without continuous exposure to 50-μM NA for 30 days (HT1080 cells) or for 40 days (fibroblast cells). For experiments on non-proliferating cells, HT1080 cells were grown to confluence and then treated for the same period. WST-1 assay was performed according to the manufacturer's instructions (Roche, Basel, Switzerland). All cell lines were tested to be free of Mycoplasma. Three biological replicates were performed for each experiment.
(§2) Genomic DNA was extracted from HT1080-(CAG)850 clones and HD primary fibroblasts using the Gentra Puregene Cell Kit (Qiagen, Valencia, Calif.). The expanded (CTG)●(CAG) repeats were sized by small-pool PCR (sp-PCR) followed by Southern blot as described previously (Sathasivam et al., 1997, Hum. Genet., 99:692-5). For HT1080 models, small-pool PCR (spPCR) was performed with the input of 1.4-1.7 genome equivalents. The repeat size difference in the models is, at most, 3000 base-pairs, therefore, being strictly conservative, a bias toward amplifying the shorter allele can be possible, even under optimized PCR conditions described herein. For HD primary fibroblasts, sp-PCR & Southern blots were performed as described previously with slight modifications (Tome et al., 2013, PLoS Genet., 9:e1003280). Briefly, the PCR primers listed in Table 1 were used, and blots were hybridized with a DIG-labeled (CAG)7 locked nucleic acid probe (Nakamori et al. 2009, Neuromuscul. Disord., 19:759-62). At least 50 alleles were analyzed for each of the three experiments (more than 150 alleles for a total study). Repeat analyses are summarized in Table 2, compiled from complete small-pool-PCR datasets for each repetition of each experiment. For the histograms in FIGS. 4D, 4E, 10, 11, 5B, 5D, 5E, 14 and 15B, the Y-axis, “% of repeat population” was calculated by determining the proportion of >50 individual small-pool PCR reactions across the CAG repeat tract, that harbored a certain size of repeat product with a certain length. Cell clones were grown 30 or 40 days with or without NA (see, for example, Sathasivam et al., 1997, Hum. Genet., 99:692-5). Specifically, the histograms of repeat length distributions were from at least two different cell clones. Length distributions were determined as follows: Small-pool PCR followed by Southern blot for analysis of CAG/CTG repeat length.

[1] = test system: HT1080-non transcribing (CAG)850 cells; experiment: small-pool PCR repeat instability, HT1080-non transcribing (CAG)850 cells; format: cell-based, human; settings: 50 uM NA, 30 days, repeat not transcribed
Protocol: as §1, §2

[2] = 50 uM NA, Total of 3 experiments
[3] = 50 uM NA, single experiments Ex 1-3
[4] = single experiments Ex 1-3, cut-off ±25 repeats

For naphthyridine-azaquinolone, the “magnitude of repeat units lost (greatest)” value (HT1080-(CAG)850 cells; 50 μM NA) was ≤ 790 repeats, the “% Unchanged” value (HT1080-(CAG)850 cells; [2]) was 26.7% and the “Average Change of Repeat Size” value (HT1080-(CAG)850 cells; 50 uM NA, Total of 3 experiments, all alleles) was −125.7 number of repeats. The “% Contraction” value (HT1080-(CAG)850 cells; [2]) was 59.4%, the “% Expansion” value (HT1080-(CAG)850 cells; [2]) was 13.9% and the “% Unchanged” value (HT1080-(CAG)850 cells; [3]) was 28.4% and 27.4% and 23.7%. For the same substance, the “% Contraction” value (HT1080-(CAG)850 cells; [3]) was 56.8% and 60.0% and 61.0%, the “% Expansion” value (HT1080-(CAG)850 cells; [3]) was 14.8% and 11.3% and 15.2% and the “% Contraction” value ([1]; Total) was 21.8%. For the same substance, the “% Expansion” value ([1]; Total) was 12.1%, the “% Unchanged” value ([1]; Total) was 66.1% and the “Average Change of Repeat Size” value ([1]; Total) was −55.9 number of repeats. The “% Unchanged” value ([1]; single experiments Ex 1-3) was 66.7% and 62.5% and 69.1%, the “% Contraction” value [1, 4] was 22.2% and 21.4% and 21.8% and the “% Expansion” value [1, 4] was 11.1% and 16.1% and 9.1%.

Source: patent US11672786B2, “Methods of treating diseases associated with repeat instability” (The Hospital for Sick Children, priority 2016, dated 2023)
